Molecular target: T1, human GLP-1 (Homo sapiens, UniProt P43220)
T1 construct: expressed in transfected cells
Assay: h-GLP-1 activity assay (Cisbio cAMP Gs dynamic kit, HTRF)
Format: cell-based
Conditions: HEK293 cells with stable expression of human GLP-1, relative EC50, 10 nM human GLP-1 = 100% response
Procedure: Human GLP-1 agonizing activity was detected in HEK293 cells with stable expression of human GLP-1 by Cisbio cAMP Gs dynamic kit (Catalog #62AM4PEC) according to manufacturer's protocol. Briefly, cells were collected and resuspended in assay buffer containing 0.1% BSA and 0.5 mM of IBMX at concentration to 2.5×10^5 cells/mL. Two μL 5× compound solution and 8 μL cell suspension were added to each well of low-volume 384 white assay plate. After 30 min incubation at 37° C., 5 μL cAMP-d2 working solution and 5 μL anti-cAMP antibody-cryptate were added to each well, and incubate at room temperature for 1 hr. Series dilution of cAMP was used as standard. Human GLP-1 (7-37) was used as positive control and 10 nM human GLP-1 was set as 100% response. HTRF signals were read at 665 and 615 nm with EnVision plate reader and calculated cAMP concentration by intrapolation to the standard curve. The EC50 value of the tested compounds was calculated by fitting the dose response curve using a 4-parameter non-linear regression routine and relative EC50 was presented in Table S.

T1 sequence (P43220 24-463): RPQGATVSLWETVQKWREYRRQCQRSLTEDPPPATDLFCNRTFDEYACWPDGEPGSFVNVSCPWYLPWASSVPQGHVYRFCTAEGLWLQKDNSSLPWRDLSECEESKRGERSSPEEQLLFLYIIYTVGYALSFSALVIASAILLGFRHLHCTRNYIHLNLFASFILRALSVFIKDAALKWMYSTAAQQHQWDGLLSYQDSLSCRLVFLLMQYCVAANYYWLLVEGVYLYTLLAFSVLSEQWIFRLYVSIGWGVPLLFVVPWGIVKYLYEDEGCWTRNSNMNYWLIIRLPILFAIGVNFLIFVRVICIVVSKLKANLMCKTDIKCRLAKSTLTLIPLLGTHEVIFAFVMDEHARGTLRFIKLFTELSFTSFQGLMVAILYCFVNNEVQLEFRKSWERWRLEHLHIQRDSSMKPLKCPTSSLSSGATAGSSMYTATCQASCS

Q: For `N#Cc1ccc(COc2nccc(C34CCC(Cc5nc6ccc(C(=O)O)cc6n5C[C@@H]5CCO5)(CC3)CC4)n2)c(F)c1` [Compound 34, (S)-2-((4-(2-((4-cyano-2-fluorobenzyl)oxy)pyrimidin-4-yl)bicyclo[2.2.2]octan-1-yl)methyl)-1-(oxetan-2-ylmethyl)-1H-benzo[d]imidazole-6-carboxylic acid], which EC50 is on record?
A: Its EC50 is greater than 100 nM.

Q: Which EC50 does the source give for `Cc1cc(Cc2nc3ccc(C(=O)O)cc3n2C[C@@H]2CCO2)ccc1-c1cccc2c1OC(C)(c1ccc(Cl)cc1F)O2` (mixture of isomers) [Compound 43, 2-(4-(2-(4-chloro-2-fluorophenyl)-2-methylbenzo[d][1,3]dioxol-4-yl)-3-methylbenzyl)-1-(((S)-oxetan-2-yl)methyl)-1H-benzo[d]imidazole-6-carboxylic acid] here?
A: Its EC50 is less than 20 nM.

Q: `C[C@]1(c2ccc(Cl)cn2)Oc2cccc(C3=CC[C@H](Cc4nc5ccc(C(=O)O)cc5n4Cc4cncs4)OC3)c2O1` (single isomer, unassigned) [Compound 112] was tested. Which EC50 did it give?
A: Its EC50 is less than 20 nM.

Q: For `O=C(O)c1ccc2nc(CN3CC=C(c4cccc5c4OC(c4ccc(Cl)cc4F)C(=O)N5)CC3)n(C[C@@H]3CCO3)c2c1` (mixture of isomers) [Compound 81, 2-((4-(2-(4-chloro-2-fluorophenyl)-3-oxo-3,4-dihydro-2H-benzo[b][1,4]oxazin-8-yl)-3,6-dihydropyridin-1(2H)-yl)methyl)-1-(((S)-oxetan-2-yl)methyl)-1H-benzo[d]imidazole-6-carboxylic acid], which EC50 is on record?
A: The EC50 was greater than 100 nM.

Q: How did the EC50 turn out when `C[C@@]1(c2ccc(Cl)cc2F)Oc2cccc(C3CCN(Cc4nc5ccc(-c6noc(=O)[nH]6)cc5n4C[C@@H]4CCO4)CC3)c2O1` (single isomer, unassigned) [Compound 37] was run?
A: Its EC50 is less than 20 nM.

Q: With `O=C(O)c1ccc2nc(Cc3cc(F)c(-c4cccc5c4OC(c4ccc(Cl)cc4F)CO5)cc3F)n(C[C@@H]3CCO3)c2c1` (mixture of isomers) [Compound 60, 2-(4-(3-(4-chloro-2-fluorophenyl)-2,3-dihydrobenzo[b][1,4]dioxin-5-yl)-2,5-difluorobenzyl)-1-(((S)-oxetan-2-yl)methyl)-1H-benzo[d]imidazole-6-carboxylic acid] as the compound, how does the EC50 read?
A: The EC50 was less than 20 nM.

Q: `C[C@]1(c2ccc(Cl)cn2)Oc2cccc(-c3ccc(Cc4nc5ccc(C(=O)O)cc5n4C[C@@H]4CCO4)cc3)c2O1` (single isomer, unassigned) [Compound 40] was tested. Which EC50 did it give?
A: The EC50 was less than 20 nM.

Q: With `O=C(O)c1ccc2nc(CN3CCC(c4cccc5c4OC(c4ccc(Cl)cc4F)C(=O)N5)CC3)n(C[C@@H]3CCO3)c2c1` (mixture of isomers) [Compound 104, 2-((4-(2-(4-chloro-2-fluorophenyl)-3-oxo-3,4-dihydro-2H-benzo[b][1,4]oxazin-8-yl)piperidin-1-yl)methyl)-1-(((S)-oxetan-2-yl)methyl)-1H-benzo[d]imidazole-6-carboxylic acid] as the compound, how does the EC50 read?
A: The EC50 was 20 to 100 nM.

Q: `C[C@]1(c2ccc(Cl)cn2)Oc2cccc(C3=CC[C@@H](Cc4nc5c(F)cc(C(=O)O)cc5n4Cc4cscn4)OC3)c2O1` (single isomer, unassigned) [Compound 117] was tested. Which EC50 did it give?
A: The EC50 was greater than 100 nM.

Q: How did the EC50 turn out when `O=C(O)c1ccc2nc(C[C@@H]3CC[C@@H](c4cccc(OCc5ccc(Cl)cc5F)n4)CO3)n(Cc3cncs3)c2c1` (single isomer, unassigned) [Compound 29] was run?
A: Its EC50 is greater than 100 nM.

Q: With `C[C@@]1(c2ccc(C3CC3)cn2)Oc2cccc(C3=CCC(Cc4nc5ccc(C(=O)O)cc5n4C[C@@H]4CCO4)OC3)c2O1` (single isomer, unassigned) [Compound 111] as the compound, how does the EC50 read?
A: Its EC50 is less than 20 nM.

Q: Which EC50 does the source give for `C[C@]1(c2ccc(Cl)cc2F)Oc2cccc(C3=CC[C@@H](Cc4nc5ccc(C(=O)O)cc5n4C[C@@H]4CCO4)OC3)c2O1` (single isomer, unassigned) [Compound 101] here?
A: Its EC50 is 20 to 100 nM.

Q: How did the EC50 turn out when `O=C(O)c1ccc2nc(CC34CCC(c5ccnc(OCc6ccc(Cl)cc6F)n5)(CC3)CO4)n(C[C@@H]3CCO3)c2c1` [Compound 35, (S)-2-((4-(2-((4-chloro-2-fluorobenzyl)oxy)pyrimidin-4-yl)-2-oxabicyclo[2.2.2]octan-1-yl)methyl)-1-(oxetan-2-ylmethyl)-1H-benzo[d]imidazole-6-carboxylic acid] was run?
A: The EC50 was greater than 100 nM.

Q: For `C[C@@]1(c2ccc(Cl)cc2F)Oc2cccc(-c3ccc(Cc4nc5ccc(C(=O)O)cc5n4C[C@@H]4CCO4)cc3)c2O1` (single isomer, unassigned) [Compound 3], which EC50 is on record?
A: The EC50 was greater than 100 nM.

Q: Which EC50 does the source give for `CC1(c2c(F)cc(Cl)cc2F)Oc2cccc(C3=CCC(Cc4nc5ccc(C(=O)O)cc5n4C[C@@H]4CCO4)OC3)c2O1` (mixture of isomers) [Compound 109, 2-((5-(2-(4-chloro-2,6-difluorophenyl)-2-methylbenzo[d][1,3]dioxol-4-yl)-3,6-dihydro-2H-pyran-2-yl)methyl)-1-(((S)-oxetan-2-yl)methyl)-1H-benzo[d]imidazole-6-carboxylic acid] here?
A: Its EC50 is less than 20 nM.

Q: For `C[C@@]1(c2ccc(Cl)cn2)Oc2cccc(C3CC4CC3CN4Cc3nc4ccc(C(=O)O)cc4n3C[C@@H]3CCO3)c2O1` (single isomer, unassigned) [Compound 74], which EC50 is on record?
A: The EC50 was greater than 100 nM.

Q: For `C[C@@]1(c2ccc(Cl)cn2)Oc2cccc(C3C4CN(Cc5nc6ccc(C(=O)O)cc6n5C[C@@H]5CCO5)CC43)c2O1` (single isomer, unassigned) [Compound 85], which EC50 is on record?
A: Its EC50 is 20 to 100 nM.

Q: `N#Cc1ccc(COc2cccc([C@H]3CC[C@H](Cc4nc5ccc(C(=O)O)cc5n4C[C@@H]4CCO4)OC3)n2)c(F)c1` (single isomer, unassigned) [Compound 30] was tested. Which EC50 did it give?
A: The EC50 was less than 20 nM.

Q: With `C[C@@]1(c2ccc(C3CC3)cn2)Oc2cccc(C3=CC[C@H](Cc4nc5c(F)cc(C(=O)O)cc5n4C[C@@H]4CCO4)OC3)c2O1` (single isomer, unassigned) [Compound 123] as the compound, how does the EC50 read?
A: The EC50 was less than 20 nM.

Q: How did the EC50 turn out when `CC1(c2ccc(Cl)cc2F)Oc2cccc(C3CC4(C3)CN(Cc3nc5ccc(C(=O)O)cc5n3C[C@@H]3CCO3)C4)c2O1` (mixture of isomers) [Compound 23, 2-((6-(2-(4-chloro-2-fluorophenyl)-2-methylbenzo[d][1,3]dioxol-4-yl)-2-azaspiro[3.3]heptan-2-yl)methyl)-1-(((S)-oxetan-2-yl)methyl)-1H-benzo[d]imidazole-6-carboxylic acid] was run?
A: The EC50 was greater than 100 nM.

Q: With `C[C@@]1(c2ccc(Cl)cc2F)Oc2cccc(C3=CC[C@H](Cc4nc5ccc(C(=O)O)cc5n4C[C@@H]4CCO4)OC3)c2O1` (single isomer, unassigned) [Compound 106] as the compound, how does the EC50 read?
A: The EC50 was greater than 100 nM.

Q: With `CC1(c2ccc(Cl)cc2F)Oc2cccc(C3CCC(Cc4nc5ccc(C(=O)O)cc5n4C[C@@H]4CCO4)CO3)c2O1` (mixture of isomers) [Compound 58, 2-((6-(2-(4-chloro-2-fluorophenyl)-2-methylbenzo[d][1,3]dioxol-4-yl)tetrahydro-2H-pyran-3-yl)methyl)-1-(((S)-oxetan-2-yl)methyl)-1H-benzo[d]imidazole-6-carboxylic acid] as the compound, how does the EC50 read?
A: Its EC50 is greater than 100 nM.

Q: `N#Cc1ccc(COc2cccc([C@@H]3CC[C@H](Cc4nc5ccc(C(=O)O)cc5n4C[C@@H]4CCO4)OC3)n2)c(F)c1` (single isomer, unassigned) [Compound 32] was tested. Which EC50 did it give?
A: The EC50 was less than 20 nM.

Q: With `CC1(c2ccc(Cl)cc2F)Oc2cccc(-c3ccc(Cc4nc5ccc(C(=O)O)cc5n4C[C@@H]4CCO4)nc3)c2O1` (mixture of isomers) [Compound 16, 2-((5-(2-(4-chloro-2-fluorophenyl)-2-methylbenzo[d][1,3]dioxol-4-yl)pyridin-2-yl)methyl)-1-(((S)-oxetan-2-yl)methyl)-1H-benzo[d]imidazole-6-carboxylic acid] as the compound, how does the EC50 read?
A: The EC50 was less than 20 nM.

Q: How did the EC50 turn out when `C[C@@]1(c2ccc(Cl)cn2)Oc2cccc([C@@H]3CC[C@H](Cc4nc5ccc(C(=O)O)cc5n4C[C@@H]4CCO4)OC3)c2O1` (single isomer, unassigned) [Compound 103] was run?
A: Its EC50 is 20 to 100 nM.

Q: With `C[C@]1(c2ccc(Cl)cn2)Oc2cccc(C3=CC[C@@H](Cc4nc5ccc(C(=O)O)cc5n4Cc4cscn4)OC3)c2O1` (single isomer, unassigned) [Compound 115] as the compound, how does the EC50 read?
A: Its EC50 is greater than 100 nM.

Q: Which EC50 does the source give for `C[C@@]1(c2ccc(Cl)cn2)Oc2cccc([C@H]3CC[C@@H](Cc4nc5ccc(C(=O)O)cc5n4C[C@@H]4CCO4)OC3)c2O1` (single isomer, unassigned) [Compound 102] here?
A: The EC50 was greater than 100 nM.

Q: For `C[C@@]1(c2ccc(Cl)cn2)Oc2cccc(N3CC4C(Cc5nc6ccc(C(=O)O)cc6n5C[C@@H]5CCO5)C4C3)c2O1` (single isomer, unassigned) [Compound 73], which EC50 is on record?
A: The EC50 was greater than 100 nM.

Q: Which EC50 does the source give for `CC1(c2ccc(Cl)cc2F)Oc2c(cccc2C2CCN(Cc3nc4ccc(C(=O)O)cc4n3C[C@@H]3CCO3)CC2)NC1=O` (mixture of isomers) [Compound 68, 2-((4-(2-(4-chloro-2-fluorophenyl)-2-methyl-3-oxo-3,4-dihydro-2H-benzo[b][1,4]oxazin-8-yl)piperidin-1-yl)methyl)-1-(((S)-oxetan-2-yl)methyl)-1H-benzo[d]imidazole-6-carboxylic acid] here?
A: Its EC50 is 20 to 100 nM.

Q: How did the EC50 turn out when `CC1(c2ccc(Cl)cc2F)Oc2cccc(-c3nc(Cc4nc5ccc(C(=O)O)cc5n4C[C@@H]4CCO4)cs3)c2O1` (mixture of isomers) [Compound 25, 2-((2-(2-(4-chloro-2-fluorophenyl)-2-methylbenzo[d][1,3]dioxol-4-yl)thiazol-4-yl)methyl)-1-(((S)-oxetan-2-yl)methyl)-1H-benzo[d]imidazole-6-carboxylic acid] was run?
A: Its EC50 is greater than 100 nM.

Q: Which EC50 does the source give for `CC1(c2ccc(Cl)cc2F)Oc2cccc(-c3ccn(Cc4nc5ccc(C(=O)O)cc5n4C[C@@H]4CCO4)c(=O)c3)c2O1` (mixture of isomers) [Compound 22, 2-((4-(2-(4-chloro-2-fluorophenyl)-2-methylbenzo[d][1,3]dioxol-4-yl)-2-oxopyridin-1(2H)-yl)methyl)-1-(((S)-oxetan-2-yl)methyl)-1H-benzo[d]imidazole-6-carboxylic acid] here?
A: Its EC50 is 20 to 100 nM.

Reference: patent publication US20220348564A1, “PHENYL-[1,3]DIOXOLO[4,5-C]PYRIDINYL-PHENYL-, PHENYL-[1,3]DIOXOLO[4,5-C]PYRIDINYL-HETEROARYL-, OR PHENYL-(1,3)DIOXO[4,5-C]PYRIDINYL-PIPERIDINYL-METHYL-OXETANYLMETHYL-1H-BENZO[D]IMIDAZOLE-CARBOXYLIC ACID DERIVATIVES AND METHODS OF USING SAME” (Eccogene (Shanghai) Co., Ltd., priority 2021, published 2022)
